The text below walks through data of patent US5986108A, “4-substitued-3-[1 or 2 amino acid residue]-azetidin-2-one derivatives useful as cysteine proteinase inhibitor” (Synphar Laboratories, Inc., priority 1997, dated 1999).

Like-named read-outs stand apart in the source and are kept apart here. Some results are limits rather than exact numbers.

Assay type in all cases: biochemical
One assay has as its target T1, papain (Carica papaya, UniProt P00784).
T1 sequence (P00784 134-345): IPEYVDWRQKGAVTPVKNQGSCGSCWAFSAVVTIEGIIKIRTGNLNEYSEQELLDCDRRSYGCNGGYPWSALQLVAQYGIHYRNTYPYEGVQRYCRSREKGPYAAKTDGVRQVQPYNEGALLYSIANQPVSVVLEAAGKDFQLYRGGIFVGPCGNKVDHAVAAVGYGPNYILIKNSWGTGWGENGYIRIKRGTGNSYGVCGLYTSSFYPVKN
Briefly: Assay of inhibition of papain (N-CBZ-Pro-Phe-Arg-pNA substrate). The protocol:
To a 170 μl of enzyme-buffer mixture (enzyme:papain, diluted to give 30 mOD/min, buffer: 0.2M potassium phosphate, 1.0 mM EDTA, 5 mML Cysteine, pH6.5) a 10 μl of inhibitor (dissolved in DMSO) was added. After 10 min of incubation at room temperature, 20 μl of 10 mM substrate (N-CBZ-Pro-Phe-Arg-pNA, dissolved in DMSO) was added to initiate reaction. Reading is followed up for 3 min at the Thermomax plate reader(absorbance at 405 nm).
A plot of percentage of inhibition vs inhibitor concentration is obtained, and IC50 is determined using a linear regression calculations (concentration of inhibitor which will give 50% inhibition).

In a further assay the target is Cathepsin B (Rattus norvegicus, UniProt P00787). Description: In vitro assay of inhibition of Cathepsin B (N-CBZ-Phe-Arg-AMC substrate). As to the method: After 10 min of incubation at room temperature a 20 μl of 5 mM substrate (N-CBZ-Phe-Arg-AMC, dissolved in DMSO) was added to initiate reaction. Reading is followed up for 10 min at the Fluoroscan reader (excitation at 380 nm, emission at 460 nm).

In the next assay the target is Cathepsin L (Rattus norvegicus, UniProt P07154). Briefly: Assay of inhibition of Cathepsin L (N-CBZ-Phe-Arg-AMC substrate). The protocol:
After 10 min of incubation at room temperature a 20 μl of 1 mM substrate (N-CBZ-Phe-Arg-AMC, dissolved in DMSO) was added to initiate reaction. Reading is followed up for 10 min at the Fluoroscan reader (excitation at 380 nm, emission at 460 nm).

Setting [1] is: r rat CathB, pH5.1, 10 min preincubation at room temperature, read-out: IC50, Cathepsin B.
Setting [2] is: r rat CathL, pH5.0, 10 min preincubation at room temperature, read-out: IC50, Cathepsin L.
The mark [3] stands for this setting: pH6.5, 10 min preincubation at room temperature, read-out: IC50, Papain.

Sequence of Cathepsin L (P07154 114-334): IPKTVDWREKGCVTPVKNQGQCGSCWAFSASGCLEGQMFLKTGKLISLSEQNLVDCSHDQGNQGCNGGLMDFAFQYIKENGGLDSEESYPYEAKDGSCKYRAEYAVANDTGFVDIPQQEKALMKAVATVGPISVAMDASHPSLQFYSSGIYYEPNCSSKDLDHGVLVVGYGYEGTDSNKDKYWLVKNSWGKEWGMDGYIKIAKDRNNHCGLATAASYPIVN
Sequence of Cathepsin B (P00787 80-339): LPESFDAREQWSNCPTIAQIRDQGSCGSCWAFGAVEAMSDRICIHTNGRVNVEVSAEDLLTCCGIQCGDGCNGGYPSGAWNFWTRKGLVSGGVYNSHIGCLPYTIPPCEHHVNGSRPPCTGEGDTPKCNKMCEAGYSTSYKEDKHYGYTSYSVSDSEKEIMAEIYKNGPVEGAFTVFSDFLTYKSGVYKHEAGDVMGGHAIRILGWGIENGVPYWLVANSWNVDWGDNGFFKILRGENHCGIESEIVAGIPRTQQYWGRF

A word on the IC50: it is the point on the concentration scale where inhibition reaches its midpoint. As for `CC(=O)O[C@@H]1NC(=O)[C@H]1NC(=O)[C@H](C)NC(=O)OCc1ccccc1` [Example 33, (3S,4S)-3-(N-benzyloxycarbonyl-L-alanyl)-amino-4-acetoxy-azetidin-2-one], the IC50 on papain was 7.03 µM; on Cathepsin B (setting [1]) it was 14.3 µM; on Cathepsin L (setting [2]) it was 35.9 µM.

For the compound `C[C@H]1[C@H](NC(=O)CNC(=O)[C@H](Cc2ccccc2)NC(=O)OCc2ccccc2)C(=O)N1S(=O)(=O)O` [Example 6, Potassium (3S,4S)-3-(N-benzyloxycarbonyl-L-phenylalanyl-glycinyl)-amino-4-methyl-azetidin-2-one-1-sulfonate], the IC50 on papain and at Cathepsin B (setting [1]) was greater than 25 µM throughout.

As for `C[C@H]1[C@H](NC(=O)[C@H](Cc2ccccc2)NC(=O)OCc2ccccc2)C(=O)N1S(=O)(=O)O` [Example 5, Potassium (3S,4S)-3-(N-benzyloxycarbonyl-L-phenylalanyl)-amino-4-methyl-azetidin-2-one-1-sulfonate], the IC50 against papain and at Cathepsin B (setting [1]) was greater than 25 µM throughout.

For the compound `CON1C[C@H](NC(=O)[C@H](Cc2ccccc2)NC(=O)OCc2ccccc2)C1=O` [Example 1, (3S)-3-(N-benzyloxycarbonyl-L-phenylalanyl)-amino-1-methoxy-azetidin-2-one], the IC50 against papain and at Cathepsin B (setting [1]) was greater than 63 µM throughout.

Regarding `CON1C[C@@H](NC(=O)[C@H](Cc2ccccc2)NC(=O)OCc2ccccc2)C1=O` [Example 3, (3R)-3-(N-benzyloxycarbonyl-L-phenylalanyl)-amino-1-methoxy-azetidin-2-one], the results for the IC50 against papain and at Cathepsin B (setting [1]) were greater than 63 µM and 52 µM, respectively.

In turn, `O=C(N[C@@H](Cc1ccccc1)C(=O)N[C@@H]1CNC1=O)OCc1ccccc1` [Example 4, (3R)-3-(N-benzyloxycarbonyl-L-phenylalanyl)-amino-azetidin-2-one] had an IC50 against papain of 57 µM.

In the case of `CC(=O)O[C@@H]1NC(=O)[C@H]1NC(=O)[C@H](CC(C)C)NC(=O)OCc1ccccc1` [Example 8, (3S,4S)-3-(N-benzyloxycarbonyl-L-leucyl)-amino-4-acetoxy-azetidin-2-one], the values for the IC50 against papain and at Cathepsin L were 0.731 µM and 0.03 µM, respectively.

Turning to `CC(=O)N[C@@H](Cc1ccccc1)C(=O)N[C@@H]1C(=O)N[C@H]1OC(C)=O` [Example 9], the IC50 at papain (setting [3]) stood at 0.228 µM; on Cathepsin B (setting [1]), 42.3 µM; at Cathepsin L (setting [2]), 2.7 µM.

For `CC(C)C[C@H](NC(=O)[C@H]1O[C@@H]1C(=O)O)C(=O)NCCCCN=C(N)N` [Example E-64, reference compound], the IC50 at papain (setting [3]) turned out to be 0.0025 µM; at Cathepsin B (setting [1]), 0.005 µM; at Cathepsin L (setting [2]) it was 0.015 µM.

As for `CC(=O)O[C@@H]1NC(=O)[C@H]1NC(=O)[C@H](Cc1ccccc1)NC(=O)/C=C/c1cccs1` [Example 17, (3S,4S)-3-[N-{3-(thiophen-2-yl)-trans-prop-2-enoyl}-L-phenylalanyl]-amino-4-acetoxy-azetidin-2-one], the half-inhibitory concentration (IC50) at Cathepsin B (setting [1]) worked out at 5.37 µM; on Cathepsin L (setting [2]), 0.0315 µM.

For `O=C(N[C@@H](Cc1ccccc1)C(=O)N[C@H]1CNC1=O)OCc1ccccc1` [Example 2, (3S)-3-(N-benzyloxycarbonyl-L-phenylalanyl)-amino-azetidin-2-one], the figures for the IC50 against papain and at Cathepsin B (setting [1]) were 15.8 µM and 4.81 µM, respectively.

For the compound `O=C(CCc1ccccc1)N[C@@H](Cc1ccccc1)C(=O)N[C@@H]1C(=O)N[C@H]1Oc1ccc(C(=O)O)cc1` [Example 27B, (3S,4S)-3-{N-(3-phenylpropionoyl)-L-phenylalanyl}-amino-4-(4-carboxyphenoxy)-azetidin-2-one], the figures for the IC50 on Cathepsin B (setting [1]) and on Cathepsin L (setting [2]) were 21.8 µM and 0.038 µM, respectively.

For `N[C@@H](Cc1ccccc1)C(=O)N[C@@H]1C(=O)N[C@H]1Oc1ccc(C(=O)O)cc1` [Example 30B, (3S,4S)-3-(L-phenylalanyl)-amino-4-(4-carboxyphenoxy)-azetidin-2-one], the IC50 at Cathepsin B (setting [1]) is greater than 68 µM; on Cathepsin L (setting [2]), 5.26 µM.

As for `O=C(N[C@@H](Cc1ccccc1)C(=O)N[C@@H]1C(=O)N[C@H]1Sc1ccncc1)OCc1ccccc1` [Example 34, (3S,4S)-3-(N-benzyloxycarbonyl-L-phenylalanyl)-amino-4-(pyrid-4-yl) thio-azetidin-2-one], the IC50 at Cathepsin B (setting [1]) was 0.33 µM; on Cathepsin L (setting [2]) it was 0.0168 µM.

Consider `CC(=O)O[C@@H]1NC(=O)[C@H]1NC(=O)[C@H](Cc1ccccc1)NC(=O)CCc1ccccc1` [Example 10, (3S,4S)-3-{N-(3-phenylpropionoyl)-L-phenylalanyl}-amino-4-acetoxy-azetidin-2-one], for which the IC50 on Cathepsin B (setting [1]) amounted to 0.47 µM; at Cathepsin L (setting [2]) it was 0.035 µM.

As to `N[C@@H](Cc1ccc(O[C@@H]2NC(=O)[C@H]2NC(=O)[C@H](Cc2ccccc2)NC(=O)CCc2ccccc2)cc1)C(=O)O` [Example 29B, (3S,4S)-3-{N-(3-phenylpropionoyl)-L-phenylalanyl}-amino-4-{4-(L-2-amino-2-carboxy-ethyl)-phenoxy}-azetidin-2-one], the IC50 against papain is 0.368 µM; on Cathepsin B (setting [1]) it was greater than 46 µM; at Cathepsin L (setting [2]) it was 0.292 µM.

`CC(=O)O[C@@H]1NC(=O)[C@H]1NC(=O)[C@H](Cc1ccccc1)NS(=O)(=O)c1ccc2ccccc2c1` [Example 19, (3S,4S)-3-{N-(naphthalen-2-yl-sulfonyl)-L-phenylalanyl}-amino-4-acetoxy-azetidin-2-one]: the values for the IC50 at Cathepsin B (setting [1]) and at Cathepsin L (setting [2]) were 7.22 µM and 0.416 µM, respectively.

As for `CC(=O)N[C@@H](CC(C)C)C(=O)N[C@@H](CC(C)C)C(=O)N[C@H](C=O)CCCNC(=N)N` [Leupeptin, reference compound], the IC50 at papain (setting [3]) was 0.012 µM; against Cathepsin B, 0.013 µM; at Cathepsin L (setting [2]), 0.008 µM.

As to `CC(=O)O[C@@H]1NC(=O)[C@H]1NC(=O)[C@H](Cc1ccccc1)NC(=O)OCc1ccccc1` [Example 7, (3S,4S)-3-(N-benzyloxycarbonyl-L-phenylalanyl)-amino-4-acetoxy-azetidin-2-one], on papain, the IC50 was determined as 0.275 µM.

Regarding `CC(=O)O[C@@H]1NC(=O)[C@H]1NC(=O)[C@H](Cc1ccccc1)NC(=O)c1cc2ccccc2o1` [Example 16, (3S,4S)-3{N-(benzofuran-2-yl-carbonyl)-L-phenylalanyl}-amino-4-acetoxy-azetidin-2-one], the half-inhibitory concentration (IC50) on Cathepsin B (setting [1]) was determined as 5.68 µM; on Cathepsin L (setting [2]), 0.035 µM.
